# Like-named read-outs stand apart in the source and are kept apart here.
# Legend:
# physchem [1] = details: -6° C.
# Description: Methomyl and oxamyl were added to various methanol:water solvent systems ranging from 100 wt. % CH3 OH to 30 wt. % CH3 OH:70 wt. % H2 O. […] The samples were equilibrated at -6° C. in a constant temperature freezer after which they were seeded with methomyl and oxamyl crystals to ensure crystallization of both materials. After crystal-liquid equilibrium was assured, liquid was removed at -6° C. and assayed for methomyl and oxamyl. Solids were also removed at -6° C., washed with hexane and dried. The solids were then dissolved in methanol to yield a 10 wt. % solution. This solution was evaluated by thin layer chromatography (TLC) to ensure the solids consisted of both methomyl and oxamyl.
# Solubility of Methomyl and Oxamyl 1:2.5 wt. ratio in CH3 OH:H2 O at -6° C.
# Example 3 was repeated by dissolving methomyl and oxamyl in a 1:2.5 weight ratio in the same solvent systems under the same conditions.
# physchem [2] = assay: physchem
# Description: Methomyl and oxamyl were added to various methanol:water solvent systems ranging from 100% CH3 OH to 40% CH3 OH:60% H2 O. The methomyl and oxamyl were dissolved separately or combined on a 1:1 weight ratio in the solvent systems at room temperature at a concentration exceeding the solubility limit at -6° C. Each sample was seeded with methomyl and/or oxamyl at -6° C. and allowed to crystallize until equilibrium was established. The supernatant liquid of each sample was assayed for methomyl and/or oxamyl by liquid chromatography.
# [3] = 60% cyclohexanone, 10% methanol, 30% water, -6° C.; for Solubility, both actives in solvent: Methomyl: with oxamyl
# Description: Methomyl and/or oxamyl were added to a solvent system consisting of 60% cyclohexanone, 10% methanol and 30% water at room temperature at a concentration higher than the solubility limit at -6° C. The methomyl and oxamyl were added together, at weight ratios of 2:1, 1:1 and 1:2.5. The solutions were cooled to -6° C. and seeded with methomyl and/or oxamyl to initiate crystallization. The solutions remained at -6° C. until equilibrium was assured. The supernatant liquid in each sample was analyzed for methomyl and oxamyl by liquid chromatography.
# [4] = 80:20 wt acetone/H2O, -6° C.; for Solubility, both actives in solvent: Methomyl: with oxamyl
# Description: Solubility of Methomyl and Oxamyl 80:20 Wt. Ratio Acetone:H2 O
# Methomyl and oxamyl were dissolved in a solvent system consisting of 80 wt. % acetone and 20 wt. % water separately and in 1:1, 2:1 and 1:2.5 wt. ratios of methomyl and oxamyl. These solutions were equilibrated at -6° C. and were seeded with methomyl and/or oxamyl. They remained at -6° C. until solid-liquid equilibrium was assured. Liquid was removed from each sample at -6° C. and assayed for methomyl and oxamyl. Solids were also removed at -6° C., washed, dried and dissolved in methanol to yield a 10 wt. % solution which was evaluated by TLC for oxamyl and methomyl.
# physchem [5] = details: -6° C.; remark: listed apart in the source
# Description: Solubility of Methomyl and Oxamyl (2:1 wt. ratio) in CH3 OH/H2 O at -6° C.
# Methomyl and oxamyl were added to various methanol:water solvent systems ranging from 100 wt. % CH3 OH to 30 wt. % CH3 OH:70 wt. % H2 O. The methomyl and oxamyl were dissolved in a 2:1 weight ratio of 50 wt. % methomyl to 25 wt. % oxamyl in the solvent systems. The samples were equilibrated at -6° C. in a constant temperature freezer after which they were seeded with methomyl and oxamyl crystals to ensure crystallization of both materials. After crystal-liquid equilibrium was assured, liquid was removed at -6° C. and assayed for methomyl and oxamyl. Solids were also removed at -6° C., washed with hexane and dried. The solids were then dissolved in methanol to yield a 10 wt. % solution. This solution was evaluated by thin layer chromatography (TLC) to ensure the solids consisted of both methomyl and oxamyl.
# [6] = 40/60 ch3oh/h2o, Methomyl alone in solvent, alone
# [7] = 50/50 ch3oh/h2o, Methomyl alone in solvent, alone
# [8] = 60/40 ch3oh/h2o, Methomyl alone in solvent, alone
# [9] = 70/30 ch3oh/h2o, Methomyl alone in solvent, alone
# [10] = 80/20 ch3oh/h2o, Methomyl alone in solvent, alone
# [11] = 90/10 ch3oh/h2o, Methomyl alone in solvent, alone
smiles,measurement,setting,value
CNC(=O)ON=C(C)SC [Methomyl],solubility,"physchem [1]; 30/70 ch3oh/h2o, both actives in solvent: Methomyl, with oxamyl, 1:2.5 wt., 30/70 CH3OH/H2O",156 mg/mL
same,solubility,physchem [1]; [6],62 mg/mL
same,solubility,"physchem [1]; 40/60 ch3oh/h2o, both actives in solvent: Methomyl, with oxamyl, 1:2.5 wt., 40/60 CH3OH/H2O",288 mg/mL
same,solubility,physchem [1]; [7],105 mg/mL
same,solubility,"physchem [1]; 50/50 ch3oh/h2o, both actives in solvent: Methomyl, with oxamyl, 1:2.5 wt., 50/50 CH3OH/H2O",411 mg/mL
same,solubility,physchem [1]; [8],155 mg/mL
same,solubility,"physchem [1]; 60/40 ch3oh/h2o, both actives in solvent: Methomyl, with oxamyl, 1:2.5 wt., 60/40 CH3OH/H2O",440 mg/mL
same,solubility,physchem [1]; [9],206 mg/mL
same,solubility,"physchem [1]; 70/30 ch3oh/h2o, both actives in solvent: Methomyl, with oxamyl, 1:2.5 wt., 70/30 CH3OH/H2O",220 mg/mL
same,solubility,physchem [1]; [10],263 mg/mL
same,solubility,"physchem [1]; 80/20 ch3oh/h2o, both actives in solvent: Methomyl, with oxamyl, 1:2.5 wt., 80/20 CH3OH/H2O",573 mg/mL
same,solubility,physchem [1]; [11],299 mg/mL
same,solubility,"physchem [1]; 90/10 ch3oh/h2o, both actives in solvent: Methomyl, with oxamyl, 1:2.5 wt., 90/10 CH3OH/H2O",699 mg/mL
same,"Solubility, Methomyl alone in solvent","physchem [1]; alone, 100/0 CH3OH/H2O",30.7 gms/100 gms
same,"Solubility, both actives in solvent: Methomyl","physchem [1]; with oxamyl, 1:2.5 wt., 100/0 CH3OH/H2O",71.1 gms/100 gms
same,solubility,"physchem [2]; 40/60 ch3oh/h2o, Methomyl alone in solvent, alone, -6° C.",62 mg/mL
same,solubility,"physchem [2]; 40/60 ch3oh/h2o, both actives in solvent: Methomyl, with oxamyl 1:1 wt., 40/60 CH3OH/H2O, -6° C.",188 mg/mL
same,solubility,"physchem [2]; 50/50 ch3oh/h2o, Methomyl alone in solvent, alone, -6° C.",105 mg/mL
same,solubility,"physchem [2]; 50/50 ch3oh/h2o, both actives in solvent: Methomyl, with oxamyl 1:1 wt., 50/50 CH3OH/H2O, -6° C.",237 mg/mL
same,solubility,"physchem [2]; 60/40 ch3oh/h2o, Methomyl alone in solvent, alone, -6° C.",155 mg/mL
same,solubility,"physchem [2]; 60/40 ch3oh/h2o, both actives in solvent: Methomyl, with oxamyl 1:1 wt., 60/40 CH3OH/H2O, -6° C.",355 mg/mL
same,solubility,"physchem [2]; 70/30 ch3oh/h2o, Methomyl alone in solvent, alone, -6° C.",208 mg/mL
same,solubility,"physchem [2]; 70/30 ch3oh/h2o, both actives in solvent: Methomyl, with oxamyl 1:1 wt., 70/30 CH3OH/H2O, -6° C.",438 mg/mL
same,solubility,"physchem [2]; 80/20 ch3oh/h2o, Methomyl alone in solvent, alone, -6° C.",263 mg/mL
same,solubility,"physchem [2]; 80/20 ch3oh/h2o, both actives in solvent: Methomyl, with oxamyl 1:1 wt., 80/20 CH3OH/H2O, -6° C.",581 mg/mL
same,solubility,"physchem [2]; 90/10 ch3oh/h2o, Methomyl alone in solvent, alone, -6° C.",299 mg/mL
same,solubility,"physchem [2]; 90/10 ch3oh/h2o, both actives in solvent: Methomyl, with oxamyl 1:1 wt., 90/10 CH3OH/H2O, -6° C.",664 mg/mL
same,"Solubility, Methomyl alone in solvent","physchem [2]; alone, 100/0 CH3OH/H2O, -6° C.",30.7 gms/100 gms
same,Solubility when dissolved together in the solvents taught,physchem [2]; summary of Examples 2-7,increases in solubility occur
same,"Solubility, both actives in solvent: Methomyl","physchem [2]; with oxamyl 1:1 wt., 100/0 CH3OH/H2O, -6° C.",63.9 gms/100 gms
same,"Solubility, Methomyl alone in solvent",[3]; alone,29.5 gms/100 gms solvent
same,"Solubility, both actives in solvent: Methomyl",[3]; ratio 1:1,46.2 gms/100 gms solvent
same,"Solubility, both actives in solvent: Methomyl",[3]; ratio 1:2.5,66.6 gms/100 gms solvent
same,"Solubility, both actives in solvent: Methomyl",[3]; ratio 2:1,64.8 gms/100 gms solvent
same,"Solubility, Methomyl alone in solvent",[4]; alone,41.4 gms/100 gms solvent
same,"Solubility, both actives in solvent: Methomyl",[4]; ratio 1:1,67.0 gms/100 gms solvent
same,"Solubility, both actives in solvent: Methomyl",[4]; ratio 1:2.5,66.6 gms/100 gms solvent
same,"Solubility, both actives in solvent: Methomyl",[4]; ratio 2:1,64.8 gms/100 gms solvent
same,solubility,"physchem [5]; 30/70 ch3oh/h2o, both actives in solvent: Methomyl, with oxamyl, 2:1 wt., 30/70 CH3OH/H2O",241 mg/mL
same,solubility,physchem [5]; [6],62 mg/mL
same,solubility,"physchem [5]; 40/60 ch3oh/h2o, both actives in solvent: Methomyl, with oxamyl, 2:1 wt., 40/60 CH3OH/H2O",422 mg/mL
same,solubility,physchem [5]; [7],105 mg/mL
same,solubility,"physchem [5]; 50/50 ch3oh/h2o, both actives in solvent: Methomyl, with oxamyl, 2:1 wt., 50/50 CH3OH/H2O",461 mg/mL
same,solubility,physchem [5]; [8],155 mg/mL
same,solubility,"physchem [5]; 60/40 ch3oh/h2o, both actives in solvent: Methomyl, with oxamyl, 2:1 wt., 60/40 CH3OH/H2O",552 mg/mL
same,solubility,physchem [5]; [9],208 mg/mL
same,solubility,"physchem [5]; 70/30 ch3oh/h2o, both actives in solvent: Methomyl, with oxamyl, 2:1 wt., 70/30 CH3OH/H2O",342 mg/mL
same,solubility,physchem [5]; [10],263 mg/mL
same,solubility,"physchem [5]; 80/20 ch3oh/h2o, both actives in solvent: Methomyl, with oxamyl, 2:1 wt., 80/20 CH3OH/H2O",598 mg/mL
same,solubility,physchem [5]; [11],299 mg/mL
same,solubility,"physchem [5]; 90/10 ch3oh/h2o, both actives in solvent: Methomyl, with oxamyl, 2:1 wt., 90/10 CH3OH/H2O",737 mg/mL
same,"Solubility, Methomyl alone in solvent","physchem [5]; alone, 100/0 CH3OH/H2O",30.7 gms/100 gms
same,Solubility change when dissolved in combination,"physchem [5]; methanol:water solvent systems, 2:1 wt. ratio dissolved initially",increased
same,"Solubility, both actives in solvent: Methomyl","physchem [5]; with oxamyl, 2:1 wt., 100/0 CH3OH/H2O",82.5 gms/100 gms

# Source: patent US4032654A, “Water-soluble, liquid concentrates of S-methyl-[(methyl-carbamoyl)oxy]-thioacetimidate and methyl N', N'-dimethyl-N-[(methyl-carbamoyl)oxy]-1-thiooxamimidate” (priority 1975, dated 1977)
